# Results as given in patent US10457709B2, “Antimicrobial peptides, their variants and uses” (priority 2015, dated 2019).
# Like-named read-outs stand apart in the source and are kept apart here. Square brackets hold non-standard residues; d marks the D form. Peptide text beside a SMILES is read from it.
# Key:
# [1] = test system: Enterobacter cloacae clinical strains; assay type: cell-based; design: Minimum inhibitory concentration: unit: μg/ml; conditions: microdilution, Muller Hinton broth-cation adjusted, 0.02% BSA, 0.2% acetic acid
# Outline: (§1)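 MIC = lowest concentration without visual growth after 20–24 h at 37° C. Microbroth dilution, 5.0×10^5 cfu/ml, 0.125–128 μg/ml range; MH broth for bacteria, potato dextrose broth for yeasts.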
# [2] = test system: Proteus mirabilis clinical strains; assay type: cell-based; design: Minimum inhibitory concentration: unit: μg/ml; conditions: microdilution, Muller Hinton broth-cation adjusted, 0.02% BSA, 0.2% acetic acid
# Outline: as §1
# [3] = test system: Serratia marcescens clinical strains; assay type: cell-based; design: Minimum inhibitory concentration: unit: μg/ml; conditions: microdilution, Muller Hinton broth-cation adjusted, 0.02% BSA, 0.2% acetic acid
# Outline: as §1
# [4] = test system: Staphylococcus aureus clinical strains; assay type: cell-based; design: Minimum inhibitory concentration: unit: μg/ml; conditions: microdilution, Muller Hinton broth-cation adjusted, 0.02% BSA, 0.2% acetic acid
# Outline: as §1
# [5] = test system: Streptococcus pneumoniae clinical strains; assay type: cell-based; design: Minimum inhibitory concentration: unit: μg/ml; conditions: microdilution, Muller Hinton broth-cation adjusted, 0.02% BSA, 0.2% acetic acid
# Outline: as §1
# [6] = test system: Candida albicans clinical strains; assay: MIC, clinical yeast strains; assay type: cell-based; design: unit: μg/ml
# Outline: as §1
# [7] = test system: C. glabrata clinical strains; assay: MIC, clinical yeast strains; assay type: cell-based, Candida glabrata; design: unit: µg/ml
# Outline: as §1
# [8] = test system: C. parapsilosis clinical strains; assay: MIC, clinical yeast strains; assay type: cell-based, Candida parapsilosis; design: unit: µg/ml
# Outline: as §1
# [9] = test system: C. quillermondiae clinical strains; assay: MIC, clinical yeast strains; assay type: cell-based, Candida quillermondiae; design: unit: μg/ml; conditions: C. quillermondiae clinical yeast strain 1
# Outline: as §1
# [10] = test system: Escherichia coli clinical strains; assay type: cell-based; conditions: microdilution, Muller Hinton broth-cation adjusted, 0.02% BSA, 0.2% acetic acid
# Outline: as §1
# [11] = test system: Klebsiella pneumoniae clinical strains; assay type: cell-based; conditions: microdilution, Muller Hinton broth-cation adjusted, 0.02% BSA, 0.2% acetic acid
# Outline: as §1
# [12] = test system: Pseudomonas aeruginosa clinical strains; assay type: cell-based; conditions: microdilution, Muller Hinton broth-cation adjusted, 0.02% BSA, 0.2% acetic acid
# Outline: as §1
structure (smiles),measurement,setting,value
CC[C@@H](C)[C@@H](N)C(=O)N[C@H](Cc1c[nH]c2ccccc12)C(=O)N[C@H](CCCCN)C(=O)N[C@H](CCCNC(=N)N)C(=O)N[C@H](Cc1ccccc1)C(=O)N[C@H](CCCNC(=N)N)C(=O)N[C@H](CC(C)C)C(=O)N[C@H](Cc1ccccc1)C(=O)N[C@H](CCCCN)C(=O)N[C@H](CCCCN)C(=O)N[C@H](Cc1c[nH]c2ccccc12)C(=O)O [Chain304D] (H-[dI][dW][dK][dR][dF][dR][dL][dF][dK][dK][dW]-OH),Minimum inhibitory concentration,[1]; Enterobacter cloacae clinical strain 1,64
same,Minimum inhibitory concentration,[1]; Enterobacter cloacae clinical strain 2,64
same,Minimum inhibitory concentration,[1]; Enterobacter cloacae clinical strain 3,128
same,Minimum inhibitory concentration,[1]; Enterobacter cloacae clinical strain 4,128
same,Minimum inhibitory concentration,[1]; Enterobacter cloacae clinical strain 5,32
same,Minimum inhibitory concentration,[2]; Proteus mirabilis clinical strain 1,>128
same,Minimum inhibitory concentration,[2]; Proteus mirabilis clinical strain 2,>128
same,Minimum inhibitory concentration,[2]; Proteus mirabilis clinical strain 3,>128
same,Minimum inhibitory concentration,[2]; Proteus mirabilis clinical strain 4,>128
same,Minimum inhibitory concentration,[2]; Proteus mirabilis clinical strain 5,>128
same,Minimum inhibitory concentration,[3]; Serratia marcescens clinical strain 1,>128
same,Minimum inhibitory concentration,[3]; Serratia marcescens clinical strain 2,>128
same,Minimum inhibitory concentration,[3]; Serratia marcescens clinical strain 3,>128
same,Minimum inhibitory concentration,[3]; Serratia marcescens clinical strain 4,>128
same,Minimum inhibitory concentration,[3]; Serratia marcescens clinical strain 5,>128
same,Minimum inhibitory concentration,[4]; Staphylococcus aureus clinical strain 1,32
same,Minimum inhibitory concentration,[4]; Staphylococcus aureus clinical strain 2,32
same,Minimum inhibitory concentration,[4]; Staphylococcus aureus clinical strain 3,16
same,Minimum inhibitory concentration,[4]; Staphylococcus aureus clinical strain 4,16
same,Minimum inhibitory concentration,[4]; Staphylococcus aureus clinical strain 5,16
same,Minimum inhibitory concentration,[5]; Streptococcus pneumoniae clinical strain 1,128
same,Minimum inhibitory concentration,[5]; Streptococcus pneumoniae clinical strain 2,128
same,Minimum inhibitory concentration,[5]; Streptococcus pneumoniae clinical strain 3,128
same,Minimum inhibitory concentration,[5]; Streptococcus pneumoniae clinical strain 4,128
same,Minimum inhibitory concentration,[5]; Streptococcus pneumoniae clinical strain 5,64
same,Minimum inhibitory concentration,[6]; Candida albicans clinical yeast strain 1,16
same,Minimum inhibitory concentration,[6]; Candida albicans clinical yeast strain 2,16
same,Minimum inhibitory concentration,[6]; Candida albicans clinical yeast strain 3,16
same,Minimum inhibitory concentration,[6]; Candida albicans clinical yeast strain 4,16
same,Minimum inhibitory concentration,[6]; Candida albicans clinical yeast strain 5,32
same,Minimum inhibitory concentration,[7]; C. glabrata clinical yeast strain 1,16
same,Minimum inhibitory concentration,[7]; C. glabrata clinical yeast strain 2,16
same,Minimum inhibitory concentration,[7]; C. glabrata clinical yeast strain 3,8
same,Minimum inhibitory concentration,[7]; C. glabrata clinical yeast strain 4,64
same,Minimum inhibitory concentration,[8]; C. parapsilosis clinical yeast strain 1,64
same,Minimum inhibitory concentration,[8]; C. parapsilosis clinical yeast strain 2,64
same,Minimum inhibitory concentration,[8]; C. parapsilosis clinical yeast strain 3,32
same,Minimum inhibitory concentration,[8]; C. parapsilosis clinical yeast strain 4,16
same,Minimum inhibitory concentration,[9],16
same,Minimum inhibitory concentration,[10]; Escherichia coli clinical strain 1,1
same,Minimum inhibitory concentration,[10]; Escherichia coli clinical strain 2,16
same,Minimum inhibitory concentration,[10]; Escherichia coli clinical strain 3,16
same,Minimum inhibitory concentration,[10]; Escherichia coli clinical strain 4,32
same,Minimum inhibitory concentration,[10]; Escherichia coli clinical strain 5,32
same,Minimum inhibitory concentration,[11]; Klebsiella pneumoniae clinical strain 1,>128
same,Minimum inhibitory concentration,[11]; Klebsiella pneumoniae clinical strain 2,>128
same,Minimum inhibitory concentration,[11]; Klebsiella pneumoniae clinical strain 3,>128
same,Minimum inhibitory concentration,[11]; Klebsiella pneumoniae clinical strain 4,>128
same,Minimum inhibitory concentration,[11]; Klebsiella pneumoniae clinical strain 5,64
same,Minimum inhibitory concentration,[12]; Pseudomonas aeruginosa clinical strain 1,32
same,Minimum inhibitory concentration,[12]; Pseudomonas aeruginosa clinical strain 2,64
same,Minimum inhibitory concentration,[12]; Pseudomonas aeruginosa clinical strain 3,64
same,Minimum inhibitory concentration,[12]; Pseudomonas aeruginosa clinical strain 4,64
same,Minimum inhibitory concentration,[12]; Pseudomonas aeruginosa clinical strain 5,16
